Our source for the Activity values is ChEMBL document CHEMBL1146961, “Analogues of N-hydroxycinnamoylphenalkylamides as inhibitors of human melanocyte-tyrosinase” (Bioorg Med Chem Lett, 2006).

The first data set has as its system Rattus norvegicus. Briefly: Toxicity in rat at 2 g/kg, po. The data set is classed as organism-based. To be noted: in vivo, 2000 mg/kg.
For `O=C(CCc1ccc(O)cc1)NCCc1ccc(O)cc1`, the Activity result was “Not Active”.
Regarding `O=C(CCc1ccc(O)c(O)c1)NCCc1ccc(O)cc1`, the Activity entry is on record as “Not Active”.
As to `O=C(/C=C/c1ccc(O)c(O)c1)NCCc1ccc(O)cc1`, the Activity result was “Not Active”.

The next data set relates to Radical scavenging activity. Briefly: DPPH radical scavenging activity at 100 uM. The data set is classed as functional.
Conditions: not given; call rule not given here
For `COc1cc(CNC(=O)/C=C/c2ccc(O)c(O)c2)ccc1O`, the Activity stood at 60%.
The compound `COc1cc(/C=C/C(=O)NCCc2ccc(O)c(O)c2)ccc1O` returned an Activity of 60%.
Same read-out and setting: the value for `O=C(/C=C/c1ccc(O)c(O)c1)NCCc1ccc(O)cc1` was 40%.
On the same count and under the same terms, the value for `O=C(/C=C/c1ccc(O)c(O)c1)NCCc1ccc(O)c(O)c1` was 60%.
